Key:
[1] = test system: murine invariant natural killer cells (iNKT); assay: Activation of iNKT cells in splenocyte culture, IFNγ ELISA; format: cell-based, mice; conditions: splenocytes cultured 72 hours with material (titrating amounts 10 μg/ml, 1 μg/ml, 100 ng/ml; concentration of the tabulated values not stated), supernatant ELISA
Procedure: This Example illustrates ability of the threitolceramide-containing liposomes to activate murine invariant natural killer cells (iNKT) and human cells, as measured by IFNγ release.
Splenocytes were prepared from either wild type (WT) or CD1d^−/− (NKT cell deficient) mice and cultured in the presence of titrating amounts (10 μg/ml, 1 μg/ml, 100 ng/ml) of non-glycosidic ceramide containing liposomes (EPC:DDAB:TC(10); EPC:EPG:TC(2); EPC:EPG:TC(5); EPC:EPG:TC(10) and EPC:CHOL:TC(10)), control liposome (EPC:EPG), soluble threitolceramide or soluble α-GalCer for 72 hours. Soluble threitolceramide and soluble α-GalCer were prepared by dissolution in a chloroform/methanol/water solution (10:10:3) at 10 mg/mL. The resulting solution was diluted to a final volume of about 200 μg/mL using vehicle solution comprised of NaCl (about 150 mM) and polyoxyethylene (20) sorbitan monolaurate (i.e., Tween 20, 0.5%). Supernatants were removed from cultures and the amount of IFNγ produced by the cells was quantified by ELISA. Briefly, ELISA plates were coated with 1D1K antibody (Mabtech) and left overnight at 4° C. The plates were washed with 0.05% Tween 20 in PBS (v/v). To eliminate any non-specific antigen binding, the plates were coated (i.e. blocked) with 200 μL of 10% FCS in PBS (v/v) and incubated for 2 h at 37° C. […]

dendritic cell (DC) = assay: DC maturation in vivo, CD86 and CD40 expression on spleen DC by flow cytometry; set-up: species or system mice; conditions: median fluorescent intensity, spleen DC 18 hours after 1 μg intravenous injection
Procedure: (§1) This example illustrates the in vivo effect of threitolceramide-containing liposomes on dendritic cell (DC) maturation, as measured by CD86 and CD40 expression, and iNKT cell activation, as measured by IL-4 and IFNγ release.
(§2) WT (n=3) and CD1d^−/− (n=1) mice were administered 1 μg of liposomes (EPC:DDAB:TC(10); EPC:EPG:TC(2); EPC:EPG:TC(5); EPC:EPG:TC(10) and EPC:CHOL:TC(10)) or control liposome (EPC:EPG), soluble threitolceramide or soluble α-GalCer by intravenous injection.
18 hours post-injection, the spleens of the mice were harvested and the phenotype of DC maturation was examined by flow cytometry as determined by the median fluorescent intensity (MFI) of CD86 and CD40 expression.

iNKT cell = assay: Activation of NKT cells in vivo, serum IL-4 and IFN-γ by ELISA; set-up: species or system mice; conditions: 1 μg intravenous injection; for IL-4 (serum): 2 hours; for INFγ (serum): 18 hours
Procedure: as §1, §2
Serums were obtained by tail venipuncture 2 and 18 hours post-injection to detect IL-4 and IFN-γ levels by ELISA.

## CCCCCCCCCCCCCCCCCCCCCCCCCC(=O)N[C@@H](COC[C@H](O)[C@@H](O)CO)[C@H](O)[C@H](O)CCCCCCCCCCCCCC [Soluble TC, threitolceramide]
[1]
  IFNγ: 3.77 ng/mL
Dendritic cell (DC)
  CD40 (DC maturation) Median: 28.9
  CD86 (DC maturation) Median: 60.1
iNKT cell
  IL-4 (serum): 0.12 ng/mL
  INFγ (serum): 0.99 ng/mL

## CCCCCCCCCCCCCCCCCCCCCCCCCC(=O)N[C@@H](CO[C@H]1O[C@H](CO)[C@H](O)[C@H](O)[C@H]1O)[C@H](O)[C@H](O)CCCCCCCCCCCCCC [Soluble α-GalCer, α-Galactosylceramide]
[1]
  IFNγ: 9.21 ng/mL
Dendritic cell (DC)
  CD40 (DC maturation) Median: 39.1
  CD86 (DC maturation) Median: 91.6
iNKT cell
  IL-4 (serum): 0.83 ng/mL
  INFγ (serum): 8.47 ng/mL
